# Test results taken from patent US8263589B2, “Inhibitors of protein aggregation” (Wista Laboratories Ltd., priority 2006, dated 2012).
# Like-named read-outs stand apart in the source and are kept apart here.
# How the values were obtained:
# [1] = target: T1, α-synuclein (fsyn binding to solid phase tsyn) (Homo sapiens, UniProt P37840); test: Solid phase ELISA assay for synuclein-synuclein binding
# T1 construct: full-length α-synuclein (fsyn) was added in the aqueous phase; The core aggregation domain of α-synuclein (amino acids 31-109) was expressed with an N-terminal polyhistidine tag; polyhistidine (N); made in house; host or cells: E. coli
# Protocol: A solid phase assay was used to measure self-association of α-synuclein. tsyn diluted in carbonate buffer (pH 8.5) was bound to the assay plate, and full-length α-synuclein (fsyn) was added in the aqueous phase. The aqueous phase binding buffer was 50 mM Na-phosphate, pH 6.0, 20 mM NaCl, 0.05% Tween-20, 1% fish skin gelatine.
# The two α-synuclein proteins were also used in a binding assay. The tsyn is bound in the solid phase, and full-length fsyn is added in the aqueous phase. […]
# [2] = target: T2, assembled tsyn (core aggregation domain of α-synuclein, amino acids 31-109) (Homo sapiens, UniProt P37840); test: Fluorescence assay of disruption of assembled tsyn (thioflavine T / primulin); format: biochemical
# T2 construct: The core aggregation domain of α-synuclein (amino acids 31-109) was expressed with an N-terminal polyhistidine tag; polyhistidine (N); made in house; host or cells: E. coli
# Protocol: (§1) α-Synuclein proteins (tsyn or fsyn) were incubated at 37° C. for the times indicated in Figure legends with mixing to induce fibril formation. In some cases, 50 μg/ml heparin was included to enhance fibril formation.
# (§2) Samples of 10 μl were then diluted to 100 μl with water, plus thioflavine T or primulin at 1 μM, or 0.2 or 5 μM in some cases. Fluorescence excitation spectra were measured in 96 well plates in a Varian Carey Eclipse Fluorescence Spectrophotometer, with the emission wavelength at 480 nm. Excitation spectra were corrected for the signal measured without tsyn and the peak signal measured from the spectra. The data were normalised to the value measured without compound and P50 values measured from plots of normalised fluorescence against concentration of compound.
# The effect of the compounds on thioflavine T and primulin fluorescence could be due to competition for the fluorescence ligand rather than disruption of the fibrils. To test this, the experiment was done at three different concentrations of fluorophore, since the P50 will be dependent on fluorophore concentration only if the effect is due to competition.
# [3] = target: α-synuclein (SSFsyn) in NIE-115 cells (Homo sapiens, UniProt P37840); test: Cell based assay for α-synuclein aggregation (SSFsyn in NIE-115 cells differentiated with dbcAMP, immunoblot mAb 42); parameters: species or system mouse; details: for EC50: ratio of α-synuclein to non-specific band falls to 50% of dbcAMP alone, immunoblot mAb 42, read-out: EC50, inhibition of FSyn expression in NIE cells differentiated with dbcAMP
# Protocol: The cell based assay employed a mouse neuroblastoma cell line NIE-115 that had been engineered to express full-length α-synuclein incorporating an N-terminal signal sequence (SSfsyn) to target incorporation of the protein into the membrane (see WO02/059150). When the cells were differentiated with dibutyryl cyclicAMP (dbcAMP) (1 mM) expression of the α-synuclein protein was increased.
# α-synuclein protein was detected by immunoblot using various anti-α-synuclein antibodies. These included: mAb 42 (BD Biosciences Cat No. 610787) that recognises an epitope within tsyn (residues 31-109 of α-synuclein). In addition to α-synuclein, mAb 42 also reacts non-specifically with a protein of higher molecular mass (the protein is not recognised by other anti-α-synuclein antibodies). This protein was used as an estimate of cell numbers as the level of this protein in cells correlates with cell density. Drugs were tested with these cells and an inhibitory activity (EC50) was calculated by determining the drug concentration in which the ratio of α-synuclein to the non-specific band fell to 50% of the value for cells treated with dbcAMP alone.
# The timing of the addition of the dbcAMP and drug was varied and the length of time that the cells are left in the presence of drug+dbcAMP before collecting cells was also be varied.
# [4] = system: NIE cells
# [5] = target: T3, assembled fsyn (full-length α-synuclein) (Homo sapiens, UniProt P37840); test: Fluorescence assay of disruption of assembled fsyn (thioflavine T / primulin); format: biochemical; details: assembled 47 h with heparin, compound 1 h, read-out: P50 for inhibition of α-synuclein-dependent fluorescence
# T3 construct: Full-length α-synuclein (syn) was expressed without a tag, and purified by ion exchange chromatography; made in house; host or cells: E. coli
# Protocol: as §1, §2
# [6] = system: parkinsonian tremor; details: cited from earlier work
# [7] = 1 μM tsyn-16 (solid phase), 5 μM fsyn-20 (aqueous phase), 50 mM sodium phosphate pH 6.0, 20 mM NaCl, read-out: B50 (μM) in α-synuclein binding assay
# [8] = tsyn-16 assembled with heparin (50 μg/ml), primulin 1 μM, mean ± SEM (n), read-out: P50 (μM) using primulin
# [9] = tsyn-16 assembled with heparin (50 μg/ml), thioflavine T 1 μM, mean ± SEM (n), read-out: P50 (μM) using thioflavone T
# [10] = assembled tsyn, primulin 0.2 μM, read-out: P50 (mean), effect of fluorophore concentration
# [11] = assembled tsyn, primulin 1.0 μM, read-out: P50 (mean), effect of fluorophore concentration
# [12] = assembled tsyn, primulin 5.0 μM, read-out: P50 (mean), effect of fluorophore concentration
# [13] = assembled tsyn, thioflavine T 0.2 μM, read-out: P50 (mean), effect of fluorophore concentration
# [14] = assembled tsyn, thioflavine T 1.0 μM, read-out: P50 (mean), effect of fluorophore concentration
# [15] = assembled tsyn, thioflavine T 5.0 μM, read-out: P50 (mean), effect of fluorophore concentration
# [16] = tsyn-13, primulin 1 μM, assembled 20 h with heparin, compound 1 h, read-out: P50 for inhibition of α-synuclein-dependent fluorescence
# [17] = tsyn-13, thioflavine T 1 μM, assembled 20 h with heparin, compound 1 h, read-out: P50 for inhibition of α-synuclein-dependent fluorescence
Compound,"IC50 [1, 7] [µM]","IC50 [2, 8] [µM]","IC50 [2, 9] [µM]",activity in the synuclein-synuclein binding assay [1],EC50 [3] [µM],LD50 [4] [µM],other results
"O=c1c(O)c(-c2ccc(O)c(O)c2)oc2ccccc12 [3,3′,4′-Trihydroxy-flavone, reference compound]",43.1,–,–,–,–,–,–
"O=c1cc(-c2ccccc2)oc2cc(O)ccc12 [7-Hydroxy-flavone, reference compound]",–,–,–,–,–,–,"IC50 [2]: > 50 µM; IC50 ([2]; P50 (μM) using primulin, tsyn-16 assembled with heparin (50 μg/ml), primulin 1 μM, mean ± SEM (n)): > 50 µM; IC50 [1]: 35.3 µM"
"Cc1c(-c2ccccc2)oc2cc(O)ccc2c1=O [7-hydroxy-3-methyl-flavone, reference compound]",141,–,–,–,–,–,–
"CN(C)c1ccc2nc3ccc(N)cc3[s+]c2c1 [Azure A, reference compound]",> 500,17.9 ± 2,3.8 ± 0.9,inactive,0.32,8.8,–
"CNc1ccc2nc3ccc(N(C)C)cc3[s+]c2c1 [Azure B, reference compound]",> 500,–,–,inactive,0.25,0.8,–
"O=c1cc(-c2ccccc2)oc2cc(O)c(O)c(O)c12 [Baicalein, reference compound]",2.5,28.2,47.6,–,–,–,–
"CCc1cc(N(CC)CC)cc2[s+]c3cc(N(CC)CC)cc(CC)c3nc12 [DEETC, 1,9-Diethyl-ethyl-thioninium chloride]",0.4,–,–,active,0.004 ± 0.001,1.0,–
"CCc1cc(N(C)C)cc2[s+]c3cc(N(C)C)cc(CC)c3nc12 [DEMTC, 1,9-Diethyl-methyl-thioninium chloride]",0.8 ± 0.4,–,–,active,–,3,–
CCN(CC)c1cc(C)c2nc3c(C)cc(N(CC)CC)cc3[s+]c2c1 [DMETC],0.5 ± 0.1,5 ± 0.9,0.9 ± 0.2,active,0.05 ± 0.04,6,–
"Cc1cc(N(C)C)cc2[s+]c3cc(N(C)C)cc(C)c3nc12 [DMMTC, 1,9-Dimethyl-methyl-thioninium chloride]",4.9,20.7 ± 7.8,0.2,active,0.1 ± 0.02,1.2,–
"CCN(CC)c1ccc2nc3ccc(N(CC)CC)cc3[s+]c2c1 [ETC, Ethyl-thioninium chloride]",3.8 ± 0.3,26 ± 6,7.3 ± 3.8,active,0.08 ± 0.02,38,"IC50 [2, 10]: 41.7 µM; IC50 [2, 11]: 34 µM; IC50 [2, 12]: 32.3 µM; IC50 [2, 13]: 3.2 µM; IC50 [2, 14]: 9 µM; IC50 [2, 15]: 17.6 µM; IC50 [2, 16]: 24.1 µM; IC50 [2, 17]: 30.3 µM; IC50 ([5]; fsyn-14, primulin): 30.6 µM; IC50 ([5]; fsyn-14, thioflavine T): 25.3 µM"
"O=c1c(O)c(-c2ccc(O)c(O)c2)oc2cc(O)ccc12 [Fisetin, reference compound]",88.2,–,–,–,–,–,–
"COc1cc(-c2oc3cc(O)ccc3c(=O)c2O)ccc1O [Geraldol, reference compound]",60.8,> 50,> 50,–,–,–,–
"CN(C)c1ccc2nc3ccc(N(C)C)cc3[s+]c2c1 [MTC, methyl-thioninium chloride]",131 ± 15,30.4 ± 3,15.4 ± 3.7,active,–,–,"IC50 [2, 10]: 41.7 µM; IC50 [2, 11]: 35.1 µM; IC50 [2, 12]: 31.2 µM; IC50 [2, 13]: 11.6 µM; IC50 [2, 14]: 12.7 µM; IC50 [2, 15]: 20.2 µM; IC50 [2, 16]: 12.9 µM; IC50 [2, 17]: 18.5 µM; IC50 ([5]; fsyn-14, primulin): 23.5 µM; IC50 ([5]; fsyn-14, thioflavine T): 3.8 µM; tolerability of oral administration ([6]; oral 8 grains (=518 mg)/day): discontinued due to side effects"
"COc1cc(O)c2c(=O)c(O)c(-c3ccc(O)c(O)c3)oc2c1 [Rhamnetin, reference compound]",11.4 ± 9.7,34.7,39.4,–,–,31,inhibitory activity in the cell based assay ([3]; NIE-115 SSFsyn cells with dbcAMP): inhibitory
"O=c1c(O)c(-c2cc(O)c(O)c(O)c2)oc2cc(O)ccc12 [Robinetin, reference compound]",39.2,27.6,21.1,–,–,–,–
"Cc1cc2nc3ccc(N(C)C)cc3[s+]c2cc1N [Tolonium chloride, Tolonium Chloride]",3.3 ± 0.3,8.8 ± 3.3,1.5 ± 0.2,active,–,1.2,–
Thionine,32.2 ± 11.7,23 ± 2.2,3.8 ± 0.3,active,–,–,"effect on Parkinsonian tremor ([6]; 4 individuals, MTC intravenously 1 or 2 mg/kg): gave no result"
